#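 Step 1: Grow cells in 96-well plates. Step 2: Expose to compound for 48 hours at 5 concentrations. Step 3: Interpolate endpoints linearly; if unreached, use highest concentration. The concentration for 50% growth inhibition is given as GI50. TGI marks complete inhibition of growth.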
# Assays:
# Assay in all cases: DTP human tumour cell line panel, 48 h
# [1] = system: NCI/ADR-RES ovarian
# [2] = system: SNB-19 CNS
# [3] = system: SR leukemia
# [4] = system: T-47D breast
# [5] = system: SF-268 CNS
# [6] = system: CAKI-1 renal
# [7] = system: A549 NSCLC
# [8] = system: NCI-H460 lung
# [9] = system: UACC-62 melanoma
# [10] = system: DU-145 prostate
Structure (SMILES),GI50 [1] [µM],TGI [1] [µM],GI50 [2] [µM],TGI [2] [µM],GI50 [3] [µM],TGI [3] [µM],GI50 [4] [µM],TGI [4] [µM],GI50 [5] [µM],TGI [5] [µM],GI50 [6] [µM],TGI [6] [µM],GI50 [7] [µM],TGI [7] [µM],GI50 [8] [µM],TGI [8] [µM],GI50 [9] [µM],TGI [9] [µM],GI50 [10] [µM],TGI [10] [µM]
CC/C(=C/c1ccc(OC)cc1)[N+](=O)[O-],3.13,11.5,2.77,7.93,2.31,7.65,1.82,5.95,3.01,10.4,1.67,3.33,6.07,19.6,2.11,4.47,2.04,4.67,2.17,5.07
N#Cc1ccc2c(-c3ccnc(NC4CC4)n3)c(-c3ccc(F)cc3)nn2c1,> 25,> 25,> 25,> 25,> 25,> 25,> 25,> 25,> 25,> 25,14.6,> 25,> 25,> 25,> 25,> 25,> 25,> 25,> 25,> 25
NS(=O)(=O)c1cccc(Nc2cc(-c3ccc(F)cc3)[nH]n2)c1,> 25,> 25,> 25,> 25,12.5,> 25,> 23.3,> 25,18.6,> 25,12.4,> 25,> 24.1,> 25,13.8,> 25,> 21.1,> 25,16.2,> 25
O=C1c2ccccc2-c2cn(Cc3ccccc3)c3cccc(c23)C1c1cccnc1 (stereo not given),1.97,> 50,14.3,> 50,1.78,> 50,2.32,> 50,18.5,> 50,2.74,> 50,3.2,> 50,1.9,> 50,2.73,> 50,4.27,40.5
COc1ccc(/C=C\c2cc(OC)c(OC)c(OC)c2)cc1NC(=O)/C=C/c1cc(OC)c(OC)c(OC)c1,2.1,> 100,5.64,> 100,0.854,> 100,5.01,> 100,> 100,> 100,2.94,> 100,3.82,> 100,3.61,> 100,2.8,> 100,5.01,> 100
COC(=O)c1sc(-n2cnc3cc(OC)c(OC)cc32)cc1OCc1ccccc1C(F)(F)F,> 25,> 25,24.9,> 25,> 25,> 25,> 25,> 25,17.1,> 25,> 25,> 25,> 25,> 25,18.7,> 25,> 25,> 25,> 25,> 25
COc1ccc2c(Cl)cc(NC(=S)Nc3ccccc3)nc2c1,,54.1,,46.5,,74.5,,45.3,,57.2,,> 100,,> 100,,> 100,,46.4,,> 100
COc1oc(C2C/C(=C/C(C)=C/C(C)=C/C(C)=C/c3ccc([N+](=O)[O-])cc3)CO2)c(C)c(=O)c1C (stereo not given),,> 49.6,,73.7,,3,,6.81,,42.6,,30.9,,68.3,,15.8,,> 54.8,,> 47.3
CCOC(=O)Nc1cc2c(c(N)n1)N=C(c1ccc(Cl)cc1Cl)CN2,,18.9,,23.2,,> 100,,43.1,,25.5,,33.7,,19.3,,6.3,,11.6,,13.3
Oc1ccccc1/C=N\NC(=S)Nc1ccc(F)cc1,0.443,> 37.8,2.32,> 100,0.415,10.5,3.34,60.1,0.95,> 73.6,1.57,> 24.3,2.33,> 100,0.446,18.1,0.95,4,1.97,> 100
COc1cc(C(=O)/C=C/c2c[nH]c3ccccc23)cc(OC)c1OC,< 0.0144,33.6,0.0342,> 57.3,< 0.01,13.8,0.0393,18.4,0.0735,26.3,< 0.0193,29.8,0.0339,24.2,< 0.0191,2.17,< 0.01,15.7,0.0296,30
CCOC(=O)c1c(CN2CCCCC2)nc2ccc(Cl)cc2c1-c1ccccc1,19.6,58.2,21.8,48.4,15.7,43.4,17.1,49.1,23.2,55.3,24.7,72.3,29.6,> 100,20,43.2,17.2,38.1,32.5,> 100
COc1cc(/C=N/NC(=O)c2cnn3c2NC(c2ccccc2)C3)ccc1OCc1ccccc1 (stereo not given),1.51,10.9,1.25,13.7,0.214,5.05,1.22,> 37.5,2.42,16.7,0.597,3.99,1.17,3.75,0.437,1.66,0.679,7.14,1.47,6.4
